From US20100267561A1, “HERBICIDAL PYRIDAZINONE DERIVATIVES” (priority 2007, published 2010)

Experiments:
Type in all cases: in vivo
[1] = test system: barnyardgrass (Echinochloa crus-galli); experiment: Test A pre-/postemergence plant response
Method in brief: (§1)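 Seeds were planted in blended loam soil and sand, then treated preemergence by directed soil spray. At that time, emerged plants (one- to two-leaf, 2–10 cm) received postemergence applications of the same surfactant-containing formulation. Injury was assessed visually on a 0–100 scale after approximately 10 days.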

[2] = test system: corn (Zea mays); experiment: Test A pre-/postemergence plant response
Method in brief: as §1

[3] = test system: giant foxtail (Setaria faberi); experiment: Test A pre-/postemergence plant response
Method in brief: as §1

[4] = test system: large crabgrass (Digitaria sanguinalis); experiment: Test A pre-/postemergence plant response
Method in brief: as §1

[5] = test system: morningglory (Ipomoea coccinea); experiment: Test A pre-/postemergence plant response
Method in brief: as §1

[6] = test system: pigweed (Amaranthus retroflexus); experiment: Test A pre-/postemergence plant response
Method in brief: as §1

[7] = test system: velvetleaf (Abutilon theophrasti); experiment: Test A pre-/postemergence plant response
Method in brief: as §1

[8] = test system: wheat (Triticum aestivum); experiment: Test A pre-/postemergence plant response
Method in brief: as §1

[9] = test system: eastern black (E.B.) nightshade (Solanum ptycanthum); experiment: Test B pre-/postemergence plant response; conditions: Preemergence; for Nightshade, E. B. plant response rating: 8 g ai/ha
Method in brief: (§2)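 Seeds were sown and sprayed preemergence, while plants at 2 to 18 cm (1- to 4-leaf stage) got postemergence sprays. Compounds were formulated in a non-phytotoxic solvent mixture with surfactant. After 13 to 15 days in a greenhouse, injury was rated visually against untreated controls, 0 (no effect) to 100 (complete control).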

[10] = test system: green foxtail (Setaria viridis); experiment: Test B pre-/postemergence plant response; conditions: for Foxtail, Green plant response rating: 8 g ai/ha
Method in brief: as §2

[11] = test system: barnyardgrass (Echinochloa crus-galli); experiment: Test B flooded paddy test plant response
Method in brief: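 Paddy-water application to 2-leaf plants in pots held under 3 cm of flooding; response is a 0–100 visual control rating against controls after 13 to 15 days, and a dash marks a missing result.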

[12] = Postemergence, 125 g ai/ha, 0 to 100 scale, 0 no effect, 100 complete control
[13] = Postemergence, 500 g ai/ha, 0 to 100 scale, 0 no effect, 100 complete control
[14] = Preemergence, 125 g ai/ha, 0 to 100 scale (0 no effect, 100 complete control)
[15] = Preemergence, 500 g ai/ha, 0 to 100 scale (0 no effect, 100 complete control)
[16] = 16 g ai/ha, scale 0 to 100 (0 no effect, 100 complete control)
[17] = Postemergence, 16 g ai/ha, scale 0 to 100
[18] = Postemergence, 31 g ai/ha, scale 0 to 100, 0 no effect, 100 complete control
[19] = Postemergence, 62 g ai/ha, scale 0 to 100
[20] = Preemergence, 16 g ai/ha, scale 0 to 100 (0 no effect, 100 complete control)
[21] = Preemergence, 31 g ai/ha, 0 to 100 scale, 0 no effect, 100 complete control
[22] = Preemergence, 62 g ai/ha, scale 0 to 100
[23] = Flood (flooded paddy test), 62 g ai/ha, scale 0 to 100, 0 no effect, 100 complete control
[24] = Flood (flooded paddy test), 250 g ai/ha, scale 0 to 100, 0 no effect, 100 complete control
[25] = Postemergence, 31 g ai/ha, 0 to 100 scale (0 no effect, 100 complete control)
[26] = Preemergence, 31 g ai/ha, 0 to 100 scale, 0 is no effect, 100 is complete control

## CCc1cc(-c2ccc(Cl)c(Cl)c2)nn1-c1c(O)cnn(C)c1=O [Compound 20]
[1]; [12]
  Plant response rating, Barnyardgrass: 80
[1]; [13]
  Plant response rating, Barnyardgrass: 100
[1]; [14]
  Plant response rating, Barnyardgrass: 90
[1]; [15]
  Plant response rating, Barnyardgrass: 100
[2]; [12]
  Plant response rating, Corn: 70
[2]; [13]
  Plant response rating, Corn: 90
[2]; [14]
  Plant response rating, Corn: 60
[2]; [15]
  Plant response rating, Corn: 90
[3]; [12]
  Plant response rating, Foxtail, Giant: 90
[3]; [13]
  Plant response rating, Foxtail, Giant: 100
[3]; [14]
  Plant response rating, Foxtail, Giant: 90
[3]; [15]
  Plant response rating, Foxtail, Giant: 100
[4]; [12]
  Plant response rating, Crabgrass, Large: 80
[4]; [13]
  Plant response rating, Crabgrass, Large: 100
[4]; [14]
  Plant response rating, Crabgrass, Large: 90
[4]; [15]
  Plant response rating, Crabgrass, Large: 100
[5]; [12]
  Plant response rating, Morningglory: 0
[5]; [13]
  Plant response rating, Morningglory: 0
[5]; [14]
  Plant response rating, Morningglory: 0
[5]; [15]
  Plant response rating, Morningglory: 0
[6]; [12]
  Plant response rating, Pigweed: 0
[6]; [13]
  Plant response rating, Pigweed: 0
[6]; [14]
  Plant response rating, Pigweed: 0
[6]; [15]
  Plant response rating, Pigweed: 0
[7]; [12]
  Plant response rating, Velvetleaf: 0
[7]; [13]
  Plant response rating, Velvetleaf: 0
[7]; [14]
  Plant response rating, Velvetleaf: 0
[7]; [15]
  Plant response rating, Velvetleaf: 0
[8]; [12]
  Plant response rating, Wheat: 50
[8]; [13]
  Plant response rating, Wheat: 70
[8]; [14]
  Plant response rating, Wheat: 60
[8]; [15]
  Plant response rating, Wheat: 80
[9]; [16]
  Plant response rating, Nightshade, E. B.: 0
[9]; 62 g ai/ha, scale 0 to 100
  Plant response rating, Nightshade, E. B.: 0
[9]; scale 0 to 100
  Nightshade, E. B. plant response rating: 0
[10]; postemergence, 0-100 scale
  Foxtail, Green plant response rating: 20
[10]; [17]
  Plant response rating, Foxtail, Green: 60
[10]; [18]
  Plant response rating, Foxtail, Green: 85
[10]; [19]
  Plant response rating, Foxtail, Green: 95
[10]; [20]
  Plant response rating, Foxtail, Green: 95
[10]; [21]
  Plant response rating, Foxtail, Green: 100
[10]; [22]
  Plant response rating, Foxtail, Green: 100
[10]; Preemergence, scale 0 to 100
  Foxtail, Green plant response rating: 20
[11]; [23]
  Plant response rating, Barnyardgrass: 0
[11]; Flood (flooded paddy test), 125 g ai/ha, scale 0 to 100, 0 no effect, 100 complete control
  Plant response rating, Barnyardgrass: 0
[11]; [24]
  Plant response rating, Barnyardgrass: 0
[11]; Flood, 31 g ai/ha, scale 0 to 100
  Plant response rating, Barnyardgrass: 0

## CCc1cc(-c2ccc(F)cc2)nn1-c1c(O)cnn(C)c1=O [Compound 25]
[1]; [25]
  Plant response rating, Barnyardgrass: 80
[1]; [12]
  Plant response rating, Barnyardgrass: 100
[1]; [26]
  Plant response rating, Barnyardgrass: 50
[1]; [14]
  Plant response rating, Barnyardgrass: 100
[2]; [25]
  Plant response rating, Corn: 20
[2]; [12]
  Plant response rating, Corn: 80
[2]; [26]
  Plant response rating, Corn: 0
[2]; [14]
  Plant response rating, Corn: 50
[3]; [25]
  Plant response rating, Foxtail, Giant: 90
[3]; [12]
  Plant response rating, Foxtail, Giant: 100
[3]; [26]
  Plant response rating, Foxtail, Giant: 40
[3]; [14]
  Plant response rating, Foxtail, Giant: 100
[4]; [25]
  Plant response rating, Crabgrass, Large: 60
[4]; [12]
  Plant response rating, Crabgrass, Large: 90
[4]; [26]
  Plant response rating, Crabgrass, Large: 20
[4]; [14]
  Plant response rating, Crabgrass, Large: 90
[5]; [25]
  Plant response rating, Morningglory: 0
[5]; [12]
  Plant response rating, Morningglory: 0
[5]; [26]
  Plant response rating, Morningglory: 0
[5]; [14]
  Plant response rating, Morningglory: 0
[6]; [25]
  Plant response rating, Pigweed: 0
[6]; [12]
  Plant response rating, Pigweed: 0
[6]; [26]
  Plant response rating, Pigweed: 0
[6]; [14]
  Plant response rating, Pigweed: 0
[7]; [25]
  Plant response rating, Velvetleaf: 0
[7]; [12]
  Plant response rating, Velvetleaf: 0
[7]; [26]
  Plant response rating, Velvetleaf: 0
[7]; [14]
  Plant response rating, Velvetleaf: 0
[8]; [25]
  Plant response rating, Wheat: 0
[8]; [12]
  Plant response rating, Wheat: 20
[8]; [26]
  Plant response rating, Wheat: 0
[8]; [14]
  Plant response rating, Wheat: 50
[9]; [16]
  Plant response rating, Nightshade, E. B.: 0
[9]; 31 g ai/ha, 0 to 100 scale, 0 no effect, 100 complete control
  Plant response rating, Nightshade, E. B.: 0
[9]; 62 g ai/ha, scale 0 to 100
  Plant response rating, Nightshade, E. B.: 0
[9]; scale 0 to 100
  Nightshade, E. B. plant response rating: 0
[10]; postemergence, 0-100 scale
  Foxtail, Green plant response rating: 55
[10]; [17]
  Plant response rating, Foxtail, Green: 70
[10]; [18]
  Plant response rating, Foxtail, Green: 80
[10]; [19]
  Plant response rating, Foxtail, Green: 98
[10]; [20]
  Plant response rating, Foxtail, Green: 98
[10]; [21]
  Plant response rating, Foxtail, Green: 98
[10]; [22]
  Plant response rating, Foxtail, Green: 98
[10]; Preemergence, scale 0 to 100
  Foxtail, Green plant response rating: 50
[11]; [23]
  Plant response rating, Barnyardgrass: 0
[11]; [24]
  Plant response rating, Barnyardgrass: 0
